Data reported in PubChem BioAssay AID256 (DTP/NCI, 2004).
Where “and” joins values, the source holds several entries; their conditions need not be identical. Equal entries are not always repeated. Inconclusive results and toxic doses are left out.

System: CD2F1 mice, L1210 leukemia ip, survival T/C
Assay: NCI In Vivo Anticancer Drug Screen. Data for tumor model L1210 Leukemia (intraperitoneal) in CD2F1 (CDF1) mice
Details: higher = longer survival
Method in brief: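 Implant tumor; dose compound or vehicle; measure endpoint in both groups; report treated divided by control.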

[1] = endpoint: mean survival time, dose: 100.0 mg/kg/injection, schedule: Q04DX002 (ip), vehicle: saline
[2] = endpoint: mean survival time, dose: 200.0 mg/kg/injection, schedule: Q04DX002 (ip), vehicle: saline
[3] = endpoint: mean survival time, dose: 400.0 mg/kg/injection, schedule: Q04DX002 (ip), vehicle: saline
[4] = endpoint: mean survival time, dose: 100.0 mg/kg/injection, schedule: Q01DX009 (ip), vehicle: saline
[5] = endpoint: mean survival time, dose: 200.0 mg/kg/injection, schedule: Q01DX009 (ip), vehicle: saline
[6] = endpoint: mean survival time, dose: 100.0 mg/kg/injection, schedule: Q01DX009 (ip), vehicle: saline with Tween-80
[7] = endpoint: mean survival time, dose: 100.0 mg/kg/injection, schedule: Q04DX003 (ip), vehicle: saline with Tween-80
[8] = endpoint: mean survival time, dose: 200.0 mg/kg/injection, schedule: Q01DX009 (ip), vehicle: saline with Tween-80
[9] = endpoint: mean survival time, dose: 200.0 mg/kg/injection, schedule: Q04DX003 (ip), vehicle: saline with Tween-80
[10] = endpoint: mean survival time, dose: 400.0 mg/kg/injection, schedule: Q01DX009 (ip), vehicle: saline with Tween-80
[11] = endpoint: mean survival time, dose: 400.0 mg/kg/injection, schedule: Q04DX003 (ip), vehicle: saline with Tween-80
[12] = endpoint: mean survival time, dose: 100.0 mg/kg/injection, schedule: Q04DX003 (ip), vehicle: Klucel (hydroxypropylcellulose) (HPC)
[13] = endpoint: mean survival time, dose: 200.0 mg/kg/injection, schedule: Q04DX003 (ip), vehicle: Klucel (hydroxypropylcellulose) (HPC)
[14] = endpoint: mean survival time, dose: 400.0 mg/kg/injection, schedule: Q04DX003 (ip), vehicle: Klucel (hydroxypropylcellulose) (HPC)
[15] = endpoint: mean survival time, dose: 100.0 mg/kg/injection, schedule: Q04DX003 (ip), vehicle: saline
[16] = endpoint: mean survival time, dose: 200.0 mg/kg/injection, schedule: Q04DX003 (ip), vehicle: saline
[17] = endpoint: mean survival time, dose: 400.0 mg/kg/injection, schedule: Q04DX003 (ip), vehicle: saline

`CCCCC(O)(c1ccccc1)C1CN(C(C)(C)C)C1c1ccccc1` (stereo unspecified) was tested, and the T/C (endpoint: mean survival time, dose: 25.0 mg/kg/injection, schedule: Q01DX001 (ip), vehicle: saline with Tween-80) was 95 % of control, the T/C (endpoint: mean survival time, dose: 50.0 mg/kg/injection, schedule: Q01DX001 (ip), vehicle: saline with Tween-80) was 91 % of control and the T/C (endpoint: mean survival time, dose: 100.0 mg/kg/injection, schedule: Q01DX001 (ip), vehicle: saline with Tween-80) was 86 % of control.

For `O=C(O)C(Cl)C(Cl)c1ccccc1` (stereo unspecified), the T/C [1] was 90 % of control, the T/C [2] was 94 % of control and the T/C [3] was 94 % of control.

With `N#Cc1cccnc1.NCCNCCN.[Br-].[Pt+4]` the T/C (endpoint: mean survival time, dose: 12.5 mg/kg/injection, schedule: Q01DX009 (ip), vehicle: saline) was 95 % of control, the T/C (endpoint: mean survival time, dose: 25.0 mg/kg/injection, schedule: Q01DX009 (ip), vehicle: saline) was 103 % of control and the T/C (endpoint: mean survival time, dose: 50.0 mg/kg/injection, schedule: Q01DX009 (ip), vehicle: saline) was 101 % of control. For the same molecule, the T/C [4] was 98 % of control and the T/C [5] was 98 % of control.

In the case of `Clc1cc(Cl)c2nc[nH]c2c1`, the T/C (endpoint: mean survival time, dose: 50.0 mg/kg/injection, schedule: Q01DX009 (ip), vehicle: saline with Tween-80) is reported as 91 % of control and the T/C [6] is reported as 95 % of control.

`CCOC(=O)CC(COC)C(Br)(C(=O)OCC)C(=O)OCC` (stereo unspecified) was tested, and the T/C (endpoint: mean survival time, dose: 1.56 mg/kg/injection, schedule: Q01DX009 (ip), vehicle: Klucel (hydroxypropylcellulose) (HPC)) was 104 % of control, the T/C (endpoint: mean survival time, dose: 3.13 mg/kg/injection, schedule: Q01DX009 (ip), vehicle: Klucel (hydroxypropylcellulose) (HPC)) was 107 % of control and the T/C (endpoint: mean survival time, dose: 6.25 mg/kg/injection, schedule: Q01DX009 (ip), vehicle: Klucel (hydroxypropylcellulose) (HPC)) was 102 % of control. The T/C (endpoint: mean survival time, dose: 12.5 mg/kg/injection, schedule: Q01DX009 (ip), vehicle: Klucel (hydroxypropylcellulose) (HPC)) was 104 % of control and the T/C (endpoint: mean survival time, dose: 25.0 mg/kg/injection, schedule: Q01DX009 (ip), vehicle: Klucel (hydroxypropylcellulose) (HPC)) was 104 % of control.

With `CC(O)C1OC(n2cnc3c(=S)nc[nH]c32)C(O)C1O` (stereo unspecified) the T/C (endpoint: median survival time, dose: 12.5 mg/kg/injection, schedule: Q01DX005 (ip), vehicle: distilled water + Tween-80) was 119 % of control and 107 % of control and the T/C (endpoint: median survival time, dose: 25.0 mg/kg/injection, schedule: Q01DX005 (ip), vehicle: distilled water + Tween-80) was 116 % of control and 124 % of control.

For `COC(CCl)(CCl)OC`, the T/C (endpoint: mean survival time, dose: 10.0 mg/kg/injection, schedule: Q01DX009 (ip), vehicle: saline with Tween-80) was 87 % of control and the T/C (endpoint: mean survival time, dose: 20.0 mg/kg/injection, schedule: Q01DX009 (ip), vehicle: saline with Tween-80) was 90 % of control.

With `O=C(c1ccccc1)C(C(c1ccc([N+](=O)[O-])cc1)N1CCOCC1)N1CCOCC1` (stereo unspecified) the T/C [6] was 97 % of control, the T/C [7] was 101 % of control and the T/C [8] was 96 % of control. For the same molecule, the T/C [9] was 101 % of control, the T/C [10] was 96 % of control and the T/C [11] was 108 % of control.

For `CC(=O)Nc1ncc2ccccc2c1-c1ccc(N(CCCl)CCCl)cc1`, the T/C (endpoint: mean survival time, dose: 25.0 mg/kg/injection, schedule: Q04DX003 (ip), vehicle: DMSO) was 105 % of control, the T/C (endpoint: mean survival time, dose: 50.0 mg/kg/injection, schedule: Q04DX003 (ip), vehicle: DMSO) was 94 % of control and the T/C (endpoint: mean survival time, dose: 50.0 mg/kg/injection, schedule: Q04DX003 (ip), vehicle: Klucel (hydroxypropylcellulose) (HPC)) was 95 % of control. For the same molecule, the T/C (endpoint: mean survival time, dose: 100.0 mg/kg/injection, schedule: Q04DX003 (ip), vehicle: DMSO) was 111 % of control, the T/C [12] was 104 % of control and the T/C (endpoint: mean survival time, dose: 100.0 mg/kg/injection, schedule: Q04DX003 (ip), vehicle: saline + alcohol) was 92 % of control. The T/C [13] was 101 % of control, the T/C (endpoint: mean survival time, dose: 200.0 mg/kg/injection, schedule: Q04DX003 (ip), vehicle: saline + alcohol) was 101 % of control and the T/C (endpoint: mean survival time, dose: 400.0 mg/kg/injection, schedule: Q04DX003 (ip), vehicle: DMSO) was 150 % of control. The T/C [14] was 104 % of control and the T/C (endpoint: mean survival time, dose: 400.0 mg/kg/injection, schedule: Q04DX003 (ip), vehicle: saline + alcohol) was 97 % of control.

With `c1ccc(CC2=NCCO2)cc1` the T/C [15] was 100 % of control, the T/C [16] was 95 % of control and the T/C [17] was 98 % of control.

In the case of `Cc1c(CNc2ccc(C(=O)NC(CC(=O)O)CC(=O)O)cc2)ccc2nc(N)nc(N)c12`, the T/C (endpoint: mean survival time, dose: 0.25 mg/kg/injection, schedule: Q01DX009 (ip), vehicle: saline) is reported as 171 % of control, the T/C (endpoint: mean survival time, dose: 0.5 mg/kg/injection, schedule: Q01DX009 (ip), vehicle: saline) is reported as 118 % of control and the T/C (endpoint: mean survival time, dose: 1.0 mg/kg/injection, schedule: Q01DX009 (ip), vehicle: saline) is reported as 104 % of control.

With `O=[N+]([O-])c1cc(Cl)ccc1Nc1ccccc1` the T/C [12] was 102 % of control, the T/C [13] was 102 % of control and the T/C [14] was 98 % of control.

For `CC(C)CCCC(C)C1CCC2C3CCC4CC(=O)C=CC4(C)C3CCC12C` (stereo unspecified), the T/C (endpoint: mean survival time, dose: 75.0 mg/kg/injection, schedule: Q04DX003 (sc), vehicle: steriod suspending solution) was 100 % of control, the T/C (endpoint: mean survival time, dose: 150.0 mg/kg/injection, schedule: Q04DX003 (sc), vehicle: steriod suspending solution) was 101 % of control and the T/C (endpoint: mean survival time, dose: 300.0 mg/kg/injection, schedule: Q04DX003 (sc), vehicle: steriod suspending solution) was 101 % of control.

`c1ccc2c(c1)Cc1cc3ccccc3nc1-2` was tested, and the T/C (endpoint: mean survival time, dose: 75.0 mg/kg/injection, schedule: Q01DX001 (ip), vehicle: saline) was 102 % of control, the T/C (endpoint: mean survival time, dose: 150.0 mg/kg/injection, schedule: Q01DX001 (ip), vehicle: saline) was 97 % of control and the T/C (endpoint: mean survival time, dose: 300.0 mg/kg/injection, schedule: Q01DX001 (ip), vehicle: saline) was 101 % of control.

`CCCc1cc(OC)ccc1O` was tested, and the T/C [6] was 96 % of control, the T/C [7] was 96 % of control and the T/C [8] was 100 % of control. For the same molecule, the T/C [9] was 94 % of control, the T/C [10] was 100 % of control and the T/C [11] was 103 % of control.

`ClCCCN1CCN(CCCCl)CC1` was tested, and the T/C (endpoint: mean survival time, dose: 6.25 mg/kg/injection, schedule: Q01DX009 (ip), vehicle: distilled water + alcohol) was 96 % of control, the T/C (endpoint: mean survival time, dose: 12.5 mg/kg/injection, schedule: Q01DX009 (ip), vehicle: distilled water + alcohol) was 95 % of control and the T/C (endpoint: mean survival time, dose: 25.0 mg/kg/injection, schedule: Q01DX009 (ip), vehicle: distilled water + alcohol) was 102 % of control. For the same molecule, the T/C (endpoint: mean survival time, dose: 50.0 mg/kg/injection, schedule: Q01DX009 (ip), vehicle: distilled water + alcohol) was 103 % of control and the T/C (endpoint: mean survival time, dose: 100.0 mg/kg/injection, schedule: Q01DX009 (ip), vehicle: distilled water + alcohol) was 108 % of control.

For `C=C(C)CS(=O)[O-].[C-]#[O+].[C-]#[O+].[Fe+6].[c-]1[c-][c-][cH-][c-]1`, the T/C (endpoint: mean survival time, dose: 6.25 mg/kg/injection, schedule: Q04DX002 (ip), vehicle: saline) was 97 % of control, the T/C (endpoint: mean survival time, dose: 12.5 mg/kg/injection, schedule: Q04DX002 (ip), vehicle: saline) was 97 % of control and the T/C (endpoint: mean survival time, dose: 25.0 mg/kg/injection, schedule: Q04DX002 (ip), vehicle: saline) was 97 % of control.

`CSc1nc(N)c2ncn(C3C=CC(O)CO3)c2n1` (stereo unspecified) was tested, and the T/C (endpoint: mean survival time, dose: 50.0 mg/kg/injection, schedule: Q01DX001 (ip), vehicle: saline) was 106 % of control, the T/C (endpoint: mean survival time, dose: 100.0 mg/kg/injection, schedule: Q01DX001 (ip), vehicle: saline) was 106 % of control and the T/C (endpoint: mean survival time, dose: 200.0 mg/kg/injection, schedule: Q01DX001 (ip), vehicle: saline) was 100 % of control. The T/C (endpoint: mean survival time, dose: 400.0 mg/kg/injection, schedule: Q01DX001 (ip), vehicle: saline) was 116 % of control.

In the case of `COC(=O)c1ccc([N+](=O)[O-])cc1O`, the T/C [6] is reported as 105 % of control, the T/C [8] is reported as 102 % of control and the T/C [10] is reported as 97 % of control.

For `c1nc[nH]n1`, the T/C [4] was 98 % of control, the T/C [15] was 95 % of control and the T/C [5] was 98 % of control. For the same molecule, the T/C [16] was 97 % of control, the T/C (endpoint: mean survival time, dose: 400.0 mg/kg/injection, schedule: Q01DX009 (ip), vehicle: saline) was 93 % of control and the T/C [17] was 100 % of control.

With `OCC1(CO)CCCC(CO)(CO)C1O` the T/C [1] was 94 % of control, the T/C [2] was 94 % of control and the T/C [3] was 94 % of control.

In the case of `O=S(=O)(O)SCc1ccccc1`, the T/C [7] is reported as 97 % of control, the T/C [9] is reported as 92 % of control and the T/C [11] is reported as 98 % of control.

In the case of `OC(Cc1nc2ccccc2s1)(C(F)(F)F)C(F)(F)F`, the T/C [6] is reported as 96 % of control, the T/C [7] is reported as 95 % of control and the T/C [8] is reported as 93 % of control. For the same molecule, the T/C [9] was 104 % of control, the T/C [10] was 96 % of control and the T/C [11] was 97 % of control.

`CC(=N)c1ccc(C)cc1` was tested, and the T/C (endpoint: mean survival time, dose: 6.25 mg/kg/injection, schedule: Q01DX001 (ip), vehicle: saline sonified) was 96 % of control, the T/C (endpoint: mean survival time, dose: 12.5 mg/kg/injection, schedule: Q01DX001 (ip), vehicle: saline sonified) was 96 % of control and the T/C (endpoint: mean survival time, dose: 25.0 mg/kg/injection, schedule: Q01DX001 (ip), vehicle: saline sonified) was 96 % of control.
